{"source": "patent US7135615B2", "about": "“Chromosome doubling method” (The Curators of the University of Missouri, priority 2001, dated 2006)", "key": {"[1]": {"tested_on": "B55 haploid plants", "test": "nitrous oxide treatment of B55 haploids (initial study, Example 1)", "description": "Maize haploids were induced by the stock 6 procedure (Coe 1959) and separated by the color marker R1-scm2 (Kato, 1999c). […] Haploid seeds were surface sterilized with the fungicide Captan and germinated in moist vermiculite at 30° C. for two days. The germinated seeds were planted at the edge of a small pot filled with ProMix (FIG. 1).\nApplication of a water mist to the plastic carpet may be used to prevent the occurrence of a static charge. […] The chamber was made from steel pipes and flanges designed for industrial use. Two 3 foot long pipes with flanges at both sides were connected to each other with 8 bolts to form the chamber. Iron covers were applied at the both ends. […] The chamber was preferably earthed.\nBecause the gas from the tank was very cold, use of a long introductory tube (5 m) submerged in water was made to warm up the gas before introduction into the chamber. Application of paper wrapped moistened calcium hydroxide was also preferable to absorb accumulating carbon dioxide in the chamber.\nAfter N2O treatment the seedlings were kept at warm temperature (20–25° C.) in the greenhouse for two to three days and transplanted to the field or pots in the greenhouse. […] The plants were then grown and self pollinated. Cultivation and self pollination methods were the same as for diploid maize plants."}, "[2]": {"tested_on": "maize haploid seedlings of origin Oh43 × Mo17", "test": "doubled haploid production trial, Oh43 × Mo17 haploids (Example 4)", "conditions": "600 kPa, 2 days; for Ear: No. of kernels produced/ear: selfed", "description": "Ten to nineteen plants were treated for each plot. Self pollinations were conducted on these treated haploids if there were fertile sectors on the tassel. Pollen grains were collected carefully on a sheet of paper and transferred to the silks repeatedly. Silks and husks were cut back prior to pollination in order to permit maximum seed set. The numbers of fertile tassel and ear sectors, as well as the numbers of anthers and selfed kernels were recorded. Statistical analyses were as described above."}}, "note": "Marks after values point to notes of the source that are not given here.", "data": [{"smiles": "[N-]=[N+]=O", "note": "[nitrous oxide gas, nitrous oxide]", "values": [{"measurement": "B55 haploid plants that could be self pollinated", "setting": "[1]; B55 haploids, 6 atm (600 kPa), two days, room temperature", "value": "70–90%"}, {"measurement": "treated plants sensitive to drought following treatment", "setting": "[1]; after N2O treatment, upon transplantation", "value": 10, "unit": "%"}, {"measurement": "induction of doubled sectors", "setting": "[1]; initial study, B55 haploids, 600 kPa", "value": "induced doubled sectors in both the tassel and the ear"}, {"measurement": "damage to plants", "setting": "[1]; initial study, sealed chamber, room temperature", "value": "not damaged"}, {"measurement": "Ear: Plants with kernels after selfing %", "setting": "[2]; 5 leaf stage", "value": 27, "unit": "n.s. %"}, {"measurement": "Tassel: No. of fertile anthers extruded/tassel", "setting": "[2]; 5 leaf stage", "value": "4.2 /tassel"}, {"measurement": "Tassel: Plants with fertile sectors %", "setting": "[2]; 5 leaf stage", "value": "73** %"}, {"measurement": "Ear: Plants with kernels after selfing No.", "setting": "[2]; 5 leaf stage, 11 survived", "value": 3}, {"measurement": "Tassel: Plants with fertile sectors No.", "setting": "[2]; 5 leaf stage, 11 survived", "value": 8}, {"measurement": "No. of plants Survived", "setting": "[2]; 5 leaf stage, 11 treated", "value": 11}, {"measurement": "Ear: No. of kernels produced/ear", "setting": "[2]; 5 leaf stage", "value": 0.5, "unit": "n.s. /ear"}, {"measurement": "Ear: Plants with kernels after selfing %", "setting": "[2]; 6 leaf stage", "value": 38, "unit": "%"}, {"measurement": "Tassel: No. of fertile anthers extruded/tassel", "setting": "[2]; 6 leaf stage", "value": "29.8** /tassel"}, {"measurement": "Tassel: No. of fertile sectors/tassel", "setting": "[2]; 6 leaf stage", "value": "2.5** /tassel"}, {"measurement": "Tassel: Plants with fertile sectors %", "setting": "[2]; 6 leaf stage", "value": "100** %"}, {"measurement": "Ear: Plants with kernels after selfing No.", "setting": "[2]; 6 leaf stage, 13 survived", "value": 5}, {"measurement": "Tassel: Plants with fertile sectors No.", "setting": "[2]; 6 leaf stage, 13 survived", "value": 13}, {"measurement": "No. of plants Survived", "setting": "[2]; 6 leaf stage, 14 treated", "value": 13}, {"measurement": "Ear: No. of kernels produced/ear", "setting": "[2]; 6 leaf stage", "value": "3.8 /ear"}, {"measurement": "Ear: Plants with kernels after selfing %", "setting": "[2]; 7 leaf stage", "value": 13, "unit": "%"}, {"measurement": "Tassel: No. of fertile anthers extruded/tassel", "setting": "[2]; 7 leaf stage", "value": "8.3* /tassel"}, {"measurement": "Tassel: No. of fertile sectors/tassel", "setting": "[2]; 7 leaf stage", "value": "1.8** /tassel"}, {"measurement": "Tassel: Plants with fertile sectors %", "setting": "[2]; 7 leaf stage", "value": "73** %"}, {"measurement": "Ear: Plants with kernels after selfing No.", "setting": "[2]; 7 leaf stage, 15 survived", "value": 2}, {"measurement": "Tassel: Plants with fertile sectors No.", "setting": "[2]; 7 leaf stage, 15 survived", "value": 11}, {"measurement": "No. of plants Survived", "setting": "[2]; 7 leaf stage, 19 treated", "value": 15}, {"measurement": "Ear: No. of kernels produced/ear", "setting": "[2]; 7 leaf stage", "value": "0.6 /ear"}]}]}
